Experimental data reported in publication PMC11882969 (Nature Communications, 2025).
Where “and” joins values, the source holds several entries; their conditions need not be identical. Equal entries are not always repeated. Marks after values point to notes of the source that are not given here.

How the values were obtained:
CB1 (rCB1) = CB1 (rCB1) (Rattus norvegicus, UniProt P20272); test: Radioligand competition binding, [3H]-CP-55,940, rat brain membranes; conditions: for radioligand binding, competition curve point (normalized): log[drug], replicate columns
Chain of CB1 (rCB1) (P20272 whole entry): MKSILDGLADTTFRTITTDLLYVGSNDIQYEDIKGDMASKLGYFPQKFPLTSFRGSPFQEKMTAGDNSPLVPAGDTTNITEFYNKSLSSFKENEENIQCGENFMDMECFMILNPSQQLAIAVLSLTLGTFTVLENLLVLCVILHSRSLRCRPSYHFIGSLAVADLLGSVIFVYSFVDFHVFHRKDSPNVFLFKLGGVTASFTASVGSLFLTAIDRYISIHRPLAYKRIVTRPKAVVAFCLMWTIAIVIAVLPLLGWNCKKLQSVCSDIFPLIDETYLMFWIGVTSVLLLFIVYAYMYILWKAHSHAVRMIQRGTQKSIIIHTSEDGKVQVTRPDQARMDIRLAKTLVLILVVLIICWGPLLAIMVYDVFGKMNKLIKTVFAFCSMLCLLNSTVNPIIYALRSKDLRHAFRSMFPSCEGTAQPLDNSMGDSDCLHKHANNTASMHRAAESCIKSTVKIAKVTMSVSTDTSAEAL

hCB1 = hCB1 (Homo sapiens, UniProt P21554); test: bioSensAll ebBRET signaling profiling, hCB1; type: cell-based; design: host or cells: HEK293SL cells, transient PEI transfection
Chain of hCB1 (P21554 whole entry): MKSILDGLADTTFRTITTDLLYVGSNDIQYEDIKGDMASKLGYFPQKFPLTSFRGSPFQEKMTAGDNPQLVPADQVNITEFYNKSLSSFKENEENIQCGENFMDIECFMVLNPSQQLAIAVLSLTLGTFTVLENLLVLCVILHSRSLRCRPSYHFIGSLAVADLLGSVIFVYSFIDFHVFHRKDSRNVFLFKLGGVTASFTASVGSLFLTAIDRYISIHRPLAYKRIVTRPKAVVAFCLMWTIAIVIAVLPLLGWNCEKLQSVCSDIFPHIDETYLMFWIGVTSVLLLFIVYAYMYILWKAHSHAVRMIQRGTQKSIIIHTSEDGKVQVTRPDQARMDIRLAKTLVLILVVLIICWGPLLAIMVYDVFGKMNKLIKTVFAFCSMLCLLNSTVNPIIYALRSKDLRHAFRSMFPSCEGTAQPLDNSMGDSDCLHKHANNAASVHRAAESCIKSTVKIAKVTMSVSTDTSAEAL

Structure (SMILES): COC(=O)[C@@](C)(NC(=O)c1cc(C)n(-c2cccc(C(F)(F)F)c2)n1)c1cccs1 [‘1350]
- LLE (lipophilic ligand efficiency) (CB1 (rCB1); LLE = pIC50 − clogP): 4.7
- LE (ligand efficiency) (CB1 (rCB1); from rCB1 affinity): 0.41
- pKi [95% CI] (CB1 (rCB1); rCB1): 9.0 [8.9 – 9.1] and 9.02 [8.9 – 9.1]
- radioligand binding, competition curve point (normalized) (CB1 (rCB1); rCB1, M = -6.643): -0.744 and -7.487 and -3.298
- radioligand binding, competition curve point (normalized) (CB1 (rCB1); rCB1, M = -7.357): -0.8036 and -4.1 and -0.2377
- radioligand binding, competition curve point (normalized) (CB1 (rCB1); rCB1, M = -8.07): 10.2232 and 5.66 and 5.585
- radioligand binding, competition curve point (normalized) (CB1 (rCB1); rCB1, M = -8.783): 48.7054 and 44.7118 and 50.1783
- radioligand binding, competition curve point (normalized) (CB1 (rCB1); rCB1, M = -9.496): 85.9821 and 91.8301 and 85.5615
- radioligand binding, competition curve point (normalized) (CB1 (rCB1); rCB1, M = -10.21): 99.5833 and 109.715 and 87.0469
- radioligand binding, competition curve point (normalized) (CB1 (rCB1); rCB1, M = -11.923): 90.0893 and 95.7219 and 98.7077
- radioligand binding, competition curve point (normalized) (CB1 (rCB1); rCB1, M = -13.636): 93.4375 and 98.1283
- fold more potent than CP-55,940 (CB1 (rCB1); rCB1 binding): 3 fold
- fold improvement in CB1R affinity (CB1 (rCB1); vs parent hit or analog without the change): ~50 fold
- fold more relatively efficacious than CP-55,940 (hCB1; CB1R, Gi/o and G13 subtypes): approximately 2 fold
- Barr2+GRK2 hCB1 (hCB1; Log [Compound] (M) -4.22186): 125.5* and 120.6* and 91.27*
- G13 hCB1 (hCB1; Log [Compound] (M) -4.22186): 69.1809 and 43.3855
- G15 hCB1 (hCB1; Log [Compound] (M) -4.22186): 108.417 and 97.817
- Gi1 hCB1 (hCB1; Log [Compound] (M) -4.22186): 103.518 and 79.8531 and 99.2855
- Gi2 hCB1 (hCB1; Log [Compound] (M) -4.22186): 106.254 and 114.578
- GoB hCB1 (hCB1; Log [Compound] (M) -4.22186): 102.685 and 99.7877 and 104.661
- Gq hCB1 (hCB1; Log [Compound] (M) -4.22186): 1156
- Gs hCB1 (hCB1; Log [Compound] (M) -4.22186): 6234
- Gz hCB1 (hCB1; Log [Compound] (M) -4.22186): 98.9486
- Barr2+GRK2 hCB1 (hCB1; Log [Compound] (M) -4.63927): 67.7543 and 59.6502 and 97.3886
- G15 hCB1 (hCB1; Log [Compound] (M) -4.63927): 104.285 and 89.1373
- Gi1 hCB1 (hCB1; Log [Compound] (M) -4.63927): 100.256 and 80.2965 and 97.3658
- Gi2 hCB1 (hCB1; Log [Compound] (M) -4.63927): 112.478 and 82.217
- GoB hCB1 (hCB1; Log [Compound] (M) -4.63927): 94.4304 and 95.2911 and 109.92
- Gq hCB1 (hCB1; Log [Compound] (M) -4.63927): 1096
- Gs hCB1 (hCB1; Log [Compound] (M) -4.63927): 6120
- Gz hCB1 (hCB1; Log [Compound] (M) -4.63927): 94.4339
- G15 hCB1 (hCB1; Log [Compound] (M) -5.05788): 99.6047 and 93.8454
- Gi1 hCB1 (hCB1; Log [Compound] (M) -5.05788): 101.042 and 84.715 and 96.0704
- Gi2 hCB1 (hCB1; Log [Compound] (M) -5.05788): 100.013 and 77.0501
- GoB hCB1 (hCB1; Log [Compound] (M) -5.05788): 90.3283 and 96.4543
- Gq hCB1 (hCB1; Log [Compound] (M) -5.05788): 1019
- Gs hCB1 (hCB1; Log [Compound] (M) -5.05788): 6223
- Gz hCB1 (hCB1; Log [Compound] (M) -5.05788): 91.6266
- G15 hCB1 (hCB1; Log [Compound] (M) -5.47381): 92.6315 and 93.0563
- Gi1 hCB1 (hCB1; Log [Compound] (M) -5.47381): 98.0616 and 86.5046 and 101.002
- Gi2 hCB1 (hCB1; Log [Compound] (M) -5.47381): 109.888 and 85.6163
- GoB hCB1 (hCB1; Log [Compound] (M) -5.47381): 95.0781 and 98.6071
- Gq hCB1 (hCB1; Log [Compound] (M) -5.47381): 1081
- Gs hCB1 (hCB1; Log [Compound] (M) -5.47381): 6070
- Gz hCB1 (hCB1; Log [Compound] (M) -5.47381): 90.4534
- Barr2+GRK2 hCB1 (hCB1; Log [Compound] (M) -5.89285): 49.9477 and 47.2064 and 86.5049
- G15 hCB1 (hCB1; Log [Compound] (M) -5.89285): 99.748 and 91.636
- Gi1 hCB1 (hCB1; Log [Compound] (M) -5.89285): 97.1719 and 80.8667 and 101.065
- Gi2 hCB1 (hCB1; Log [Compound] (M) -5.89285): 102.458 and 76.0168
- GoB hCB1 (hCB1; Log [Compound] (M) -5.89285): 92.8683 and 94.9439 and 107.071
- Gq hCB1 (hCB1; Log [Compound] (M) -5.89285): 1042
- Gs hCB1 (hCB1; Log [Compound] (M) -5.89285): 6370
- Gz hCB1 (hCB1; Log [Compound] (M) -5.89285): 91.8989
- G15 hCB1 (hCB1; Log [Compound] (M) -6.31878): 101.969 and 92.5566
- Gi1 hCB1 (hCB1; Log [Compound] (M) -6.31878): 107.685 and 74.7378 and 104.951
- Gi2 hCB1 (hCB1; Log [Compound] (M) -6.31878): 103.614 and 79.7423
- GoB hCB1 (hCB1; Log [Compound] (M) -6.31878): 90.0362 and 98.2252 and 101.933
- Gq hCB1 (hCB1; Log [Compound] (M) -6.31878): 1039
- Gs hCB1 (hCB1; Log [Compound] (M) -6.31878): 6417
- Gz hCB1 (hCB1; Log [Compound] (M) -6.31878): 93.1455
- G15 hCB1 (hCB1; Log [Compound] (M) -6.72585): 105.885 and 89.0321
- Gi1 hCB1 (hCB1; Log [Compound] (M) -6.72585): 94.74 and 76.8441 and 99.3323
- Gi2 hCB1 (hCB1; Log [Compound] (M) -6.72585): 103.093 and 82.0131
- GoB hCB1 (hCB1; Log [Compound] (M) -6.72585): 94.0367 and 93.8848 and 98.7347
- Gq hCB1 (hCB1; Log [Compound] (M) -6.72585): 1115
- Gs hCB1 (hCB1; Log [Compound] (M) -6.72585): 6298
- Gz hCB1 (hCB1; Log [Compound] (M) -6.72585): 84.3779
- G15 hCB1 (hCB1; Log [Compound] (M) -7.14267): 103.856 and 93.4508
- Gi1 hCB1 (hCB1; Log [Compound] (M) -7.14267): 91.7446 and 70.6519 and 99.504
- Gi2 hCB1 (hCB1; Log [Compound] (M) -7.14267): 99.8505 and 80.4086
- GoB hCB1 (hCB1; Log [Compound] (M) -7.14267): 91.8523 and 88.9368 and 103.009
- Gq hCB1 (hCB1; Log [Compound] (M) -7.14267): 1002
- Gs hCB1 (hCB1; Log [Compound] (M) -7.14267): 6288
- Gz hCB1 (hCB1; Log [Compound] (M) -7.14267): 87.489 and 99.2286
- Barr2+GRK2 hCB1 (hCB1; Log [Compound] (M) -7.55284): 47.1448 and 43.6966 and 56.3415
- G15 hCB1 (hCB1; Log [Compound] (M) -7.55284): 99.9152 and 95.5813
- Gi1 hCB1 (hCB1; Log [Compound] (M) -7.55284): 97.765 and 74.1201 and 97.5531
- Gi2 hCB1 (hCB1; Log [Compound] (M) -7.55284): 96.1681 and 79.7288
- GoB hCB1 (hCB1; Log [Compound] (M) -7.55284): 92.1444 and 89.4924 and 88.6102
- Gq hCB1 (hCB1; Log [Compound] (M) -7.55284): 1106
- Gs hCB1 (hCB1; Log [Compound] (M) -7.55284): 6295
- Gz hCB1 (hCB1; Log [Compound] (M) -7.55284): 88.7355 and 97.954
- G13 hCB1 (hCB1; Log [Compound] (M) -8): 59.5674 and 29.7847
- G15 hCB1 (hCB1; Log [Compound] (M) -8): 98.7928 and 95.555
- Gi1 hCB1 (hCB1; Log [Compound] (M) -8): 85.5759 and 80.7558 and 94.7595
- Gi2 hCB1 (hCB1; Log [Compound] (M) -8): 103.924 and 86.4729
- GoB hCB1 (hCB1; Log [Compound] (M) -8): 93.1096 and 93.0515 and 90.8837
- Gq hCB1 (hCB1; Log [Compound] (M) -8): 998
- Gs hCB1 (hCB1; Log [Compound] (M) -8): 6325
- Gz hCB1 (hCB1; Log [Compound] (M) -8): 81.7172 and 92.9121
